3 compounds from ChEMBL document CHEMBL5143732 (J Med Chem, 2022) can be followed below.

Usually AUC(0-t) stands for exposure summed from dosing to a finite time, without extrapolation to infinity. What is called MTD is the highest dose tested that stayed within the study's limit of toxicity. Broadly, the MRT inf is the average time that molecules of a dose stay in the body. The term solubility denotes the dissolved amount per volume that the medium holds. The term MIC denotes the lowest concentration found to suppress growth. A word on the HC50: it is the concentration giving 50% haemolysis. A lower HC50 goes with more damage to red cells. One may read the ED50 as the midpoint of the dose-response relation. Broadly, the AUC(0-inf) is total exposure, with the tail of the curve extrapolated. Higher therefore signals high exposure. Usually AUC stands for the area under the concentration-time curve, a measure of exposure. The IC50 is the concentration that inhibits the measured activity by half. A low value points to greater potency in that assay.

Values after ≈ are worked out from the molar mass of the structure shown. Where only a bound is given, the exact number is not on record here.

Series [1] has as its system Candida tropicalis. Briefly: Potency index, ratio of AMD MIC to test compound MIC for antifungal activity against Candida tropicalis. In kind it is functional.
A short description of series [2]: Acute toxicity in SPF ICR mouse assessed as polypnea at 15 to 30 mg/kg, iv administered on day 1 and measured for 14 days. The class given is organism-based. The settings on record: in vivo, 336 h, dose 15-30 mg/kg, time 14 day.
Series [3] is described as follows: AUClast in ICR (CD-1) mouse at 1 mg/kg, iv measured upto 24 hrs. The class given is ADME, organism-based. Also noted: dose 1 mg/kg, time < 24 hrs, route iv. The note with it: in vivo.
Series [4] can be described thus: Elimination half life in ICR (CD-1) mouse at 1 mg/kg, iv measured upto 24 hrs. In kind it is ADME, organism-based. The note with it: in vivo, read-out: beta t1/2 (converted).
A short description of series [5]: Acute toxicity in iv dosed SPF ICR mouse assessed as maximum tolerated measured for 14 days. The class given is organism-based. The note with it: in vivo, dose 30 mg/kg, time 14 day.
Series [6] is described as follows: Observed MRT infinity in ICR (CD-1) mouse at 1 mg/kg, iv measured upto 24 hrs. The class given is ADME, organism-based. The settings on record: in vivo.
A short description of series [7]: Aqueous solubility of compound at pH 6.8. The note with it: buffer. In kind it is physicochemical.
The test system of series [8] is Pichia kudriavzevii. Briefly: Antifungal activity against Candida krusei ATCC 6258 assessed as inhibition of fungal growth measured after 48 hrs by CLSI based agar dilution method. The class given is functional. (In agar dilution the substance is mixed into plates at graded concentrations.)
The nature of series [9]: Observed volume of distribution at steady state in ICR (CD-1) mouse at 1 mg/kg, iv measured upto 24 hrs. The class given is ADME, organism-based. The note with it: in vivo, read-out: Vdss.
Series [10] is described as follows: Acute toxicity in SPF ICR mouse assessed as polypnea upto 7.5 mg/kg, iv administered on day 1 and measured for 14 days. The class given is organism-based. The settings on record: in vivo, 336 h, time 14 day.
The subject of series [11] is Candida albicans. Briefly: Antifungal activity against Candida albicans assessed as inhibition of fungal growth measured after 48 hrs by CLSI based agar dilution method. In kind it is functional.
Series [12] can be described thus: Acute toxicity in SPF ICR mouse assessed as prostration at 15 to 30 mg/kg, iv administered on day 1 and measured for 14 days. The class given is organism-based. The note with it: in vivo, 336 h, dose 15-30 mg/kg, time 14 day.
In series [13] the test system is Candida parapsilosis. Kind of series: Antifungal activity against Candida parapsilosis assessed as inhibition of fungal growth measured after 48 hrs by CLSI based agar dilution method. The class given is functional. The settings on record: Lodderomyces parapsilosis.
In series [14] the test system is Nakaseomyces glabratus. Briefly: Potency index, ratio of AMD MIC to test compound MIC for antifungal activity against Candida glabrata. In kind it is functional.
In series [15] the test system is Cryptococcus neoformans. Kind of series: Antifungal activity against Cryptococcus neoformans ATCC 32609 assessed as inhibition of fungal growth measured after 48 hrs by CLSI based agar dilution method. In kind it is functional.
Series [16] has as its system Cryptococcus neoformans. Kind of series: Potency index, ratio of AMD MIC to test compound MIC for antifungal activity against Cryptococcus neoformans. In kind it is functional.
Series [17] can be described thus: Therapeutic index ratio of MTD for acute toxicity in iv dosed SPF ICR mouse to ED50 for antifungal activity against Candida albicans ATTCC 14053 infected in SPF kunming mouse. In kind it is organism-based. The note with it: in vivo, read-out: TI.
Series [18] in a line: Hemolytic activity in human RBC measured after 1 hr. The note with it: red blood cells (erythrocytes). The class given is toxicity, cell-based, Erythrocyte.
The subject of series [19] is Candida albicans. Kind of series: Potency index, ratio of AMD MIC to test compound MIC for antifungal activity against Candida albicans. In kind it is functional.
The test system of series [20] is Candida parapsilosis. Kind of series: Potency index, ratio of AMD MIC to test compound MIC for antifungal activity against Candida parapsilosis. The class given is functional.
In series [21] the test system is Pichia kudriavzevii. Kind of series: Potency index, ratio of AMD MIC to test compound MIC for antifungal activity against Candida krusei. In kind it is functional.
Series [22] deals with Candida tropicalis. Briefly: Antifungal activity against Candida tropicalis assessed as inhibition of fungal growth measured after 48 hrs by CLSI based agar dilution method. The class given is functional.
The test system of series [23] is Pichia kudriavzevii. Kind of series: Antifungal activity against Candida krusei assessed as inhibition of fungal growth measured after 48 hrs by CLSI based agar dilution method. The class given is functional.
Series [24] in a line: Observed clearance in ICR (CD-1) mouse at 1 mg/kg, iv measured upto 24 hrs. The class given is ADME, organism-based. Also noted: dose 1 mg/kg, time < 24 hrs, route iv. The settings on record: in vivo.
Series [25] concerns Candida albicans. Kind of series: Antifungal activity against Candida albicans ATTCC 14053 infected in SPF Kunming mouse assessed as increase in mouse survival pre-infected for 1 hr followed by compound addition and measured after 7 to 14 days. The class given is functional. The note with it: time 7-14 day.
The nature of series [26]: Acute toxicity in SPF ICR mouse assessed as prostration upto 7.5 mg/kg, iv administered on day 1 and measured for 14 days. The class given is organism-based. The settings on record: in vivo, 336 h, time 14 day.
Series [27] in a line: Observed AUC infinity in ICR (CD-1) mouse at 1 mg/kg, iv measured upto 24 hrs. In kind it is ADME, organism-based. Also noted: dose 1 mg/kg, time < 24 hrs, route iv. The settings on record: in vivo.
Series [28] deals with Cytochrome P450 3A4 (Homo sapiens, UniProt P08684). Kind of series: Inhibition of CYP3A4 in human liver microsome using midazolam and testostrone as substrate preincubated for 10 mins followed by NADPH addition and measured after 15 mins by LC-MS/MS analysis. In kind it is ADME, microsomes. In general terms: Liver microsomes are vesicles of endoplasmic reticulum, rich in cytochrome P450 enzymes.

The target in series [29] is Voltage-gated inwardly rectifying potassium channel KCNH2 (Homo sapiens, UniProt Q12809). Briefly: Inhibition of hERG expressed in CHO cells at -80 mV holding potential by automated patch clamp method. In kind it is toxicity, cell-based. Background: Block of hERG is tested as a sign of cardiac risk.
For series [30], the target named is T1, Cytochrome P450 1A2 (Homo sapiens, UniProt P05177).
T1 sequence (P05177 whole entry): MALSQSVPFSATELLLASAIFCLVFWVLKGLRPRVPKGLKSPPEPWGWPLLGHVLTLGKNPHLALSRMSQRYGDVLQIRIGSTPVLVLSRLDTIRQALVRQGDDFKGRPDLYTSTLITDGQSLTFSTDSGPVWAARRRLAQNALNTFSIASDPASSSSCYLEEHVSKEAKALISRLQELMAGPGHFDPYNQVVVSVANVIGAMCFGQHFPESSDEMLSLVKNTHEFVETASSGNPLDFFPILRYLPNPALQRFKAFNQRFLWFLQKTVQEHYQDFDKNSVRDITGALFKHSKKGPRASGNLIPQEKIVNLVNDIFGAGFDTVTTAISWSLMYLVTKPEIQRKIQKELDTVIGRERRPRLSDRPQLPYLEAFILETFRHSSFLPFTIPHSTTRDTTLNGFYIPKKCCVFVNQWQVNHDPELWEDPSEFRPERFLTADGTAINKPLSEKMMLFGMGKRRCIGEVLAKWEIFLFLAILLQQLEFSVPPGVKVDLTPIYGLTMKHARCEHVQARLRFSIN
Briefly: Inhibition of CYP1A2 in human liver microsome using Phenacetin as substrate preincubated for 10 mins followed by NADPH addition and measured after 15 mins by LC-MS/MS analysis. In kind it is ADME, microsomes.

Series [31] has as its target Cytochrome P450 2C19 (Homo sapiens, UniProt P33261). Briefly: Inhibition of CYP2C19 in human liver microsome using mephenytoin as substrate preincubated for 10 mins followed by NADPH addition and measured after 15 mins by LC-MS/MS analysis. In kind it is ADME, microsomes.
Series [32] deals with Cytochrome P450 2C9 (Homo sapiens, UniProt P11712). Briefly: Inhibition of CYP2C9 in human liver microsome using tolbutamide as substrate preincubated for 10 mins followed by NADPH addition and measured after 15 mins by LC-MS/MS analysis. In kind it is ADME, microsomes.
Series [33] in a line: Aggregation property of the compound in PBS at 7.4 pH assessed as dimerization at 5.4 uM by UV/vis double-beam spectrometer analysis. The class given is physicochemical. The note with it: buffer, pH 7.4, 5.4 µM.
Series [34] deals with Cytochrome P450 2D6 (Homo sapiens, UniProt P10635). Kind of series: Inhibition of CYP2D6 in human liver microsome using dextromethorphan as substrate preincubated for 10 mins followed by NADPH addition and measured after 15 mins by LC-MS/MS analysis. The class given is ADME, microsomes.
Cytochrome P450 2D6, sequence (P10635 whole entry): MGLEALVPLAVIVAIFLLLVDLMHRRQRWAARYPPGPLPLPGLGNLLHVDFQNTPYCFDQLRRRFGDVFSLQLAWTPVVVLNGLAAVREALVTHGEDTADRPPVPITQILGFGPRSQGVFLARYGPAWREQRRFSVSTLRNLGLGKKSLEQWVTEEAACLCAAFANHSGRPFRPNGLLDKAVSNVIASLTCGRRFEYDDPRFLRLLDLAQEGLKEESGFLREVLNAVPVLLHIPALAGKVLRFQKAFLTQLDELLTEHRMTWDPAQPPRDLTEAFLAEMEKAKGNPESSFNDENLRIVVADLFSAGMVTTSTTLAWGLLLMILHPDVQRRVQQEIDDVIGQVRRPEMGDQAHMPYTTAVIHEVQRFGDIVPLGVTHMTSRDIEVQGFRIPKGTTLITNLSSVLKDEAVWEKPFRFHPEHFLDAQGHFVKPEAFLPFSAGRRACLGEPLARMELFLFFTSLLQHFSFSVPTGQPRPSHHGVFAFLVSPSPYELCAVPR

Voltage-gated inwardly rectifying potassium channel KCNH2, sequence (Q12809 whole entry): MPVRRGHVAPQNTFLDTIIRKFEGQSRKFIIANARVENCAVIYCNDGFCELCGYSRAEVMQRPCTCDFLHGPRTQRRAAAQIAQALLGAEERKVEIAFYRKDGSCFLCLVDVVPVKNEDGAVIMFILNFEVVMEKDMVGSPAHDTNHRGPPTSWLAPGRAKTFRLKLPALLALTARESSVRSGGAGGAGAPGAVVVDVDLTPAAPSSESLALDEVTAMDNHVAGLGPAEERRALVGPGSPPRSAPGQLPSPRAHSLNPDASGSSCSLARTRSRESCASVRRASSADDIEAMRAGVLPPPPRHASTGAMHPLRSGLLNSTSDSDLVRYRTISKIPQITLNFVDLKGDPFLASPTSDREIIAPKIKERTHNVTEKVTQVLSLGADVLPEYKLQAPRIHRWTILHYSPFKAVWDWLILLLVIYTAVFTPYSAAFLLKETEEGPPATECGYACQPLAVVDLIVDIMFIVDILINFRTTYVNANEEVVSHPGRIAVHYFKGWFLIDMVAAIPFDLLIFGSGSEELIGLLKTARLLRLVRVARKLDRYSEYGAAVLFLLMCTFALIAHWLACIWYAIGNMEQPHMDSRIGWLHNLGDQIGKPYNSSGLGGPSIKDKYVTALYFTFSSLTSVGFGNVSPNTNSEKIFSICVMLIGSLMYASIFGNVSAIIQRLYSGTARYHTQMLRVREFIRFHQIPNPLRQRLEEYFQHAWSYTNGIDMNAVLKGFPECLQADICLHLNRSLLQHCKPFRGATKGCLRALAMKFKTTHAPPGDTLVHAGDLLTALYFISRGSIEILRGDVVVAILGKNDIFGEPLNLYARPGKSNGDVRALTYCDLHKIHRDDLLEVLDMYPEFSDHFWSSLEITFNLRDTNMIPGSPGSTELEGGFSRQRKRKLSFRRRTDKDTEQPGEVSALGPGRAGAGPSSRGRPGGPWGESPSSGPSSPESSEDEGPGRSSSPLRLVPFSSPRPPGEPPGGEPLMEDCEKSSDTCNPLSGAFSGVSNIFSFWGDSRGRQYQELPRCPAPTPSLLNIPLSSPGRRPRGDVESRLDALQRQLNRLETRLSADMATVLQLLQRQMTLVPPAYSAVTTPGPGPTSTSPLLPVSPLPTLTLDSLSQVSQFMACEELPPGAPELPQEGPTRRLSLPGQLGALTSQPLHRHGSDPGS
Cytochrome P450 3A4, sequence (P08684 whole entry): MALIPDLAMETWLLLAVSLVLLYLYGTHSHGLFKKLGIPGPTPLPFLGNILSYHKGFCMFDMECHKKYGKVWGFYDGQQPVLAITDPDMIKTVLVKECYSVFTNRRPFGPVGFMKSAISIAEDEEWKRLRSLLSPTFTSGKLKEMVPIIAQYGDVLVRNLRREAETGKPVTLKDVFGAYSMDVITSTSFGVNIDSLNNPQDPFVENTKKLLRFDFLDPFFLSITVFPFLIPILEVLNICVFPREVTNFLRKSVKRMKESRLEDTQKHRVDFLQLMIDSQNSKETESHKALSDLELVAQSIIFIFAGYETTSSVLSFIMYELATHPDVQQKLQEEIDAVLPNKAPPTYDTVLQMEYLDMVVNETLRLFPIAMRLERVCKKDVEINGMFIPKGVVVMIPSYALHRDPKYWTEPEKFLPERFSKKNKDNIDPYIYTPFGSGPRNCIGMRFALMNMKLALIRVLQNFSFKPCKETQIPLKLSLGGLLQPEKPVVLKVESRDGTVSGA
Cytochrome P450 2C9, sequence (P11712 whole entry): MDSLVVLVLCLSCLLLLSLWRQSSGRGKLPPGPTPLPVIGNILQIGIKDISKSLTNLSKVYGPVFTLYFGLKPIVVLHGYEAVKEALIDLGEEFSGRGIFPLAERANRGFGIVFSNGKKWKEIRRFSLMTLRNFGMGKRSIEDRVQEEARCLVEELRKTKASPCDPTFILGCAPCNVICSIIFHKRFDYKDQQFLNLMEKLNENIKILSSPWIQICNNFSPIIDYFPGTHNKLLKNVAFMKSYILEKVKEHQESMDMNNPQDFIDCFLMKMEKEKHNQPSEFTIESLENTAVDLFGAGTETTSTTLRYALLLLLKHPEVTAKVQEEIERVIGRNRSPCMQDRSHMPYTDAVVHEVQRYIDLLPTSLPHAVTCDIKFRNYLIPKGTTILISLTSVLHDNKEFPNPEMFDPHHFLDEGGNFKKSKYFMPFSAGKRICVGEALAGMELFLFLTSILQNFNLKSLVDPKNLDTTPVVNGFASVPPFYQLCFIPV
Cytochrome P450 2C19, sequence (P33261 whole entry): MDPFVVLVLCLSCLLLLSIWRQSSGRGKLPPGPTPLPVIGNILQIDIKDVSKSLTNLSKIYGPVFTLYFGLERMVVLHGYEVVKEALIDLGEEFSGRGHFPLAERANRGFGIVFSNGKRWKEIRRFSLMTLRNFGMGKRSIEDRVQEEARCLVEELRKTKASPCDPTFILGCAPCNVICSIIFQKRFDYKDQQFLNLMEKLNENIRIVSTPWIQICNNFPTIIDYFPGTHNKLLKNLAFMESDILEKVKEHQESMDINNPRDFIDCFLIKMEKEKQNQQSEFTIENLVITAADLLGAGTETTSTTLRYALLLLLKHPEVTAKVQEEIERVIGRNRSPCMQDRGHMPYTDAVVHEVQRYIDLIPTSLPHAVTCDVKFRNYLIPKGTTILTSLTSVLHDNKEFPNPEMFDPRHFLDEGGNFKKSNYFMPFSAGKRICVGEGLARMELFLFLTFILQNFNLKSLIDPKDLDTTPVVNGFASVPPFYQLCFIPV

On to `CNCC(=O)N[C@@H]1[C@H](O)[C@H](O[C@H]2/C=C/C=C/C=C/C=C/C=C/C=C/C=C/[C@H](C)[C@@H](O)[C@@H](C)[C@H](C)OC(=O)C[C@H](O)C[C@H](O)CC[C@@H](O)[C@H](O)C[C@H](O)C[C@]3(O)C[C@H](O)[C@@H](C(=O)NCCN)[C@H](C2)O3)O[C@H](C)[C@H]1O`, for which the Ratio in series [1] was determined as 33; in [14], 66; in [16], 125; in series [19], 60; in series [20], 16; in series [21], 8. In addition, the Activity entry is listed as “Toxic” in [2], “Non-Toxic” in series [10], “Toxic” in series [12] and “Non-Toxic” in series [26]. Moreover, the AUC(0-t) at 24 h in [3] (ICR (CD-1)) was 17600 ng·h/mL. The half-life in series [4] was 20.5 h. The MTD at 336 h in series [5] stood at 7.5 mg/kg. In series [6], the mean residence time MRT inf came to 29.5 h. In series [7], the concentration in solution (solubility) was 0.0585 mg/mL (≈ 56.4 µM). Also, the MIC is 0.125 µg/mL (≈ 0.121 µM) in [8]; less than 0.008 µg/mL in [11]; 0.03 µg/mL (≈ 0.0289 µM) in series [13]; less than 0.008 µg/mL in [15]; 0.03 µg/mL (≈ 0.0289 µM) in series [22]; 0.25 µg/mL (≈ 0.241 µM) in series [23]. For the same compound, in series [9], the Vd was determined as 0.917 L/kg. Also, the selectivity ratio in [17] stood at 35.7. The compound also came in with a 50% haemolytic concentration (HC50) at 1 h in [18] of 105 µM. The clearance in series [24] (route iv, dose 1 mg/kg, time < 24 hrs, read-out: CL) was found to be 0.53 mL/min/kg. The ED50 in [25] amounted to 0.21 mg/kg. Besides, in [27] (ICR (CD-1)), the AUC(0-inf) was 31800 ng·h/mL.
In series [3] (24 h), `C[C@@H]1[C@H](O)[C@@H](C)/C=C/C=C/C=C/C=C/C=C/C=C/C=C/[C@H](O[C@@H]2O[C@H](C)[C@@H](O)[C@H](N)[C@@H]2O)C[C@@H]2O[C@](O)(C[C@@H](O)C[C@@H](O)[C@H](O)CC[C@@H](O)C[C@@H](O)CC(=O)O[C@H]1C)C[C@H](O)[C@H]2C(=O)O` [AMPHOTERICIN B] registered an AUClast of 2488 ng·h/mL. In addition, the half-life in series [4] is 19.2 h. Also, the maximal tolerated dose (MTD) at 336 h in [5] stood at 2.01 mg/kg. In series [6], the MRT inf worked out at 28.8 h. For the same compound, in series [9], the Vd was determined as 6.42 L/kg. For the same compound, the results for the MIC in series [11], in series [13] and in series [22] were 0.5 µg/mL (≈ 0.541 µM), 0.25 µg/mL (≈ 0.271 µM) and 1 µg/mL (≈ 1.08 µM), respectively. This compound also came in with an HC50 at 1 h in series [18] of 4.13 µM. For the same compound, the clearance in [24] (iv, 1 mg/kg, read-out: AUC) stood at 4.02 mL/min/kg. Further, the ED50 in series [25] was found to be 1.08 mg/kg. The compound also came in with an area under the curve (AUC) in series [27] (24 h) of 4476 ng·h/mL.
Compound `CNCC(=O)N[C@@H]1[C@H](O)[C@H](O[C@H]2/C=C/C=C/C=C/C=C/C=C/C=C/C=C/[C@H](C)[C@@H](O)[C@@H](C)[C@H](C)OC(=O)C[C@H](O)C[C@H](O)CC[C@@H](O)[C@H](O)C[C@H](O)C[C@]3(O)C[C@H](O)[C@@H](C(=O)NCCN)[C@H](C2)O3)O[C@H](C)[C@H]1O.NC(CCC(=O)O)C(=O)O` showed a solubility in series [7] of 106 mg/mL. The IC50 in series [28] was 36.9 µM; in [29] it was more than 13.3 µM; in series [30] it was more than 25 µM; in [31], more than 50 µM; in series [32], more than 50 µM; in series [34], more than 50 µM. Besides, in series [33], the result was Active.
